# Source: patent US20030129222A1, “Liposomal imexon” (priority 2000, published 2003)
# pIC50: −log10 of the molar value. Like-named read-outs stand apart in the source and are kept apart here.
# Experiments:
# [1] = tested on: WiDr colon, res; experiment: Cytotoxicity in tumor cell culture, SRB assay; assay type: cell-based; conditions: Homo sapiens, WiDr, read-out: IC50 against human mouse tumors, WiDr colon res
# Description: (§1) Relative potencies of the N-substituted 2-cyanoaziridine-1-carboxamides in a panel of tumor cell cultures are compared in Table 3. This panel includes the following lines of human tumor cells: sensitive and imexon-resistant lines of multiple myeloma (Matsuoka et al., 1967); ovarian carcinoma resistant to standard drugs (Hamilton et al., 1984); melanoma with a slow growth fraction (Girard et al., 1973); breast carcinoma including sensitive, doxorubicin-resistant (P-glycoprotein-positive) (Taylor et al., 1991), and mitoxantrone-resistant (P-glycoprotein-negative) (Futscher et al., 1994) lines; sensitive and multidrug-resistant colon carcinoma (Noguchi et al., 1979; Dalton et al., 1988); and multidrug-resistant lung carcinoma (P-glycoprotein-negative) (Girard et al., 1973). It also has sensitive (Goldin et al., 1961) and multidrug-resistant (P-glycoprotein-positive) (Salmon and Hersh, 1994) murine L1210 leukemia cells.
# [2] = tested on: WiDr colon, Sens; experiment: Cytotoxicity in tumor cell culture, SRB assay; assay type: cell-based
# Description: as §1
# [3] = tested on: 8226 myeloma, Res (imexon-resistant); experiment: Cytotoxicity in tumor cell culture, SRB assay; assay type: cell-based; conditions: Homo sapiens, read-out: IC50 against human mouse tumors, 8226 myeloma Res
# Description: as §1
# [4] = tested on: A375 melan; experiment: Cytotoxicity in tumor cell culture, SRB assay; assay type: cell-based, human
# Description: as §1
# [5] = tested on: MCF7 breast, Dox (doxorubicin-resistant); experiment: Cytotoxicity in tumor cell culture, SRB assay; assay type: cell-based, human; conditions: Homo sapiens
# Description: as §1
# [6] = tested on: OVCAR3 ovarian; experiment: Cytotoxicity in tumor cell culture, SRB assay; assay type: cell-based, human
# Description: as §1
# [7] = tested on: 8226 myeloma, Sens (drug-sensitive); experiment: Cytotoxicity in tumor cell culture, SRB assay; assay type: cell-based, human; conditions: Homo sapiens
# Description: as §1
# [8] = tested on: A-549 lung; experiment: Cytotoxicity in tumor cell culture, SRB assay; assay type: cell-based, human
# Description: as §1
# [9] = tested on: MCF7 breast, Sens; experiment: Cytotoxicity in tumor cell culture, SRB assay; assay type: cell-based, human
# Description: as §1
# [10] = tested on: MCF7 breast, mitox (mitoxantrone-resistant); experiment: Cytotoxicity in tumor cell culture, SRB assay; assay type: cell-based, human; conditions: Homo sapiens
# Description: as §1
# [11] = tested on: L1210 leukemia, Mdr; experiment: Cytotoxicity in tumor cell culture, MTT assay; assay type: cell-based, murine; conditions: Mus musculus
# Description: as §1
# [12] = tested on: L1210 leukemia, Sens; experiment: Cytotoxicity in tumor cell culture, MTT assay; assay type: cell-based, murine; conditions: Mus musculus
# Description: as §1
# [13] = substituent constant, from Hansch and Leo or calculated using Clog P software; cited from earlier work
# [14] = cited from earlier work
# [15] = tested on: PIE 2-3 sarcoma; conditions: cited from earlier work; for activity against PIE 2-3 sarcoma: 13: over a 10-fold dose range
# [16] = tested on: leukocytes; conditions: in vivo; cited from earlier work
# [17] = tested on: Ovary (cloned fresh human tumors); experiment: Human tumor cloning assay, [3H]thymine uptake by tumor-colony-forming cells; assay type: cell-based; conditions: No. tested 12
# Experimental: (§2) Assays of antitumor agents against fresh human tumor-colony-forming cells provide results that predict better the responses obtained in treating cancer patients than those obtained with long established human cell lines (Salmon et al., 1981). For this reason, the N-phenyl derivative 13 was tested against a variety of fresh human tumors obtained at the Arizona Cancer Center using established methodology (Salmon and Hersh, 1994).
# [18] = tested on: Other Gynecologic (cloned fresh human tumors); experiment: as above; assay type: cell-based; conditions: No. tested 4
# Experimental: as §2
# [19] = tested on: Lung (cloned fresh human tumors); experiment: as above; assay type: cell-based; conditions: No. tested 2
# Experimental: as §2
# [20] = tested on: Sarcoma (cloned fresh human tumors); experiment: as above; assay type: cell-based; conditions: for no. sensitive: Sarcoma, No. tested 8
# Experimental: as §2
# [21] = tested on: Stomach (cloned fresh human tumors); experiment: as above; assay type: cell-based; conditions: No. tested 1
# Experimental: as §2
# [22] = tested on: Breast (cloned fresh human tumors); experiment: as above; assay type: cell-based; conditions: No. tested 4
# Experimental: as §2
# [23] = tested on: Melanoma (cloned fresh human tumors); experiment: as above; assay type: cell-based; conditions: No. tested 10
# Experimental: as §2
# [24] = tested on: Myeloma (cloned fresh human tumors); experiment: as above; assay type: cell-based; conditions: No. tested 3
# Experimental: as §2
# [25] = tested on: fresh human tumor-colony-forming cells; experiment: Human tumor cloning assay, eight tumor cell types together; assay type: cell-based
# Experimental: as §2
# [26] = cited from earlier work; remark: listed apart in the source
# [27] = Homo sapiens, WiDr; read-out: IC50 against human mouse tumors, WiDr colon Sens
# [28] = Homo sapiens, A-375; read-out: IC50 against human mouse tumors, A375 melan
# [29] = MCF7, doxorubicin-resistant, read-out: IC50 against human mouse tumors, MCF7 breast Dox
# [30] = Homo sapiens, OVCAR-3; read-out: IC50 against human mouse tumors, OVCAR3 ovarian
# [31] = against sensitive myeloma, values repeated from Table 3 (μM there), read-out: IC50
# [32] = drug-sensitive line, read-out: IC50 against human mouse tumors, 8226 myeloma Sens
# [33] = Homo sapiens, A549; read-out: IC50 against human mouse tumors, A-549 lung
# [34] = Homo sapiens, MCF7; read-out: IC50 against human mouse tumors, MCF7 breast Sens
# [35] = MCF7, mitoxantrone-resistant, read-out: IC50 against human mouse tumors, MCF7 breast mitox
# [36] = L1210, MTT assay, multidrug-resistant, read-out: IC50 against human mouse tumors, L1210 leukemia Mdr
# [37] = L1210, MTT assay, read-out: IC50 against human mouse tumors, L1210 leukemia Sens
# [38] = 13 2.0 μM (second column of 13)
smiles,measurement,setting,value
"CNC(=O)N1CC1C#N (stereo not shown) [Compound 6, 2-Cyanoaziridine-1-(N-methyl) carboxainide]",melting point,,98 to 100 °C
same,pIC50,[1]; multidrug-resistant,4.64
same,pIC50,[2]; [27],4.68
same,pIC50,[3]; line made resistant to imexon,4.59
same,pIC50,[4]; [28],4.77
same,pIC50,[5]; [29],4.77
same,pIC50,[6]; [30],4.85
same,IC50,"[7]; against sensitive myeloma, read-out: Log(1/C) (converted)",25.7 µM
same,IC50,[7]; [31],26 µM
same,pIC50,[7]; [32],4.59
same,pIC50,[8]; [33],4.66
same,pIC50,[9]; [34],4.57
same,pIC50,[10]; [35],4.74
same,pIC50,[11]; [36],4.68
same,pIC50,[12]; [37],5.06
same,π,[13],0.50
CO[C@@]12[C@H](COC(N)=O)C3=C(C(=O)C(C)=C(N)C3=O)N1C[C@@H]1N[C@@H]12 [Mitomycin],maximal serum concentration,[14]; 10 mg I.V.,0.52 mg/mL
same,maximal serum concentration,[14]; 20 mg I.V.,1.7 mg/mL
same,maximal serum concentration,[14]; 30 mg I.V.,2.4 mg/mL
same,time required to reduce the serum concentration by about 50%,[14]; 30 mg bolus injection,17 min
same,dose excreted unchanged in the urine,[14]; in vivo,Approximately 10%
"N#CC1CN1C(N)=O (stereo not shown) [Compound 1, 2-cyanoaziridine-1-carboxamide]",pIC50,[1],< 3.55
same,pIC50,"[2]; Homo sapiens, WiDr, read-out: IC50 against human mouse tumors, WiDr colon Sens",< 3.55
same,pIC50,[3],3.36
same,activity against PIE 2-3 sarcoma,[15],active
same,toxicity,"[15]; rat, in vivo",low toxicity
same,pIC50,"[4]; Homo sapiens, A-375, read-out: IC50 against human mouse tumors, A375 melan",< 4.05
same,pIC50,"[5]; MCF7, read-out: IC50 against human mouse tumors, MCF7 breast Dox",< 4.27
same,pIC50,"[6]; Homo sapiens, OVCAR-3, read-out: IC50 against human mouse tumors, OVCAR3 ovarian",< 4.05
same,pIC50,[7],3.54
same,pIC50,"[7]; read-out: IC50 against human mouse tumors, 8226 myeloma Sens",3.54
same,IC50,[7]; read-out: Log(1/C) (converted),288 µM
same,pIC50,"[8]; Homo sapiens, A549, read-out: IC50 against human mouse tumors, A-549 lung",< 3.55
same,pIC50,"[9]; Homo sapiens, MCF7, read-out: IC50 against human mouse tumors, MCF7 breast Sens",< 4.27
same,pIC50,"[10]; MCF7, read-out: IC50 against human mouse tumors, MCF7 breast mitox",< 4.27
same,pIC50,"[11]; L1210, read-out: IC50 against human mouse tumors, L1210 leukemia Mdr",< 4.05
same,pIC50,"[12]; L1210, read-out: IC50 against human mouse tumors, L1210 leukemia Sens",< 4.05
same,effect on number of leukocytes,[16],increased the number of leukocytes
same,π,[13],0
"N#CC1CN1C(=O)Nc1ccccc1 (stereo not shown) [Compound 13, 2-Cyanoaziridine-1-(N-phenyl)carboxamide]",melting point,,88 to 90 °C
same,pIC50,[1]; multidrug-resistant,4.92
same,pIC50,[2]; [27],5.30
same,pIC50,[3]; line made resistant to imexon,5.10
same,activity against PIE 2-3 sarcoma,[15],active
same,pIC50,[4]; [28],4.96
same,pIC50,[5]; [29],5.59
same,pIC50,[6]; [30],5.17
same,IC50,[7]; read-out: Log(1/C) (converted),5.37 µM
same,IC50,[7]; [31],5.3 µM
same,pIC50,[7]; [32],5.28
same,pIC50,[8]; [33],5.05
same,pIC50,[9]; [34],5.54
same,pIC50,[10]; [35],5.37
same,pIC50,[11]; [36],4.96
same,pIC50,[12]; [37],5.92
same,no. sensitive,[17]; 13 0.2 μM,3/10
same,no. sensitive,[17]; [38],10/11
same,no. sensitive,[17]; 13 2.0 μM (third column of 13),10
same,no. sensitive,[18]; 13 0.2 μM,0
same,no. sensitive,[18]; [38],2
same,no. sensitive,[18]; 13 2.0 μM (third column of 13),3
same,no. sensitive,[19]; 13 0.2 μM,0
same,no. sensitive,[19]; [38],1
same,no. sensitive,[19]; 13 2.0 μM (third column of 13),2
same,activity against the sarcoma cells compared with imexon,[20],superior
same,no. sensitive,[20]; 13 0.2 μM,2/2
same,no. sensitive,[20]; [38],4
same,no. sensitive,[20]; 13 2.0 μM (third column of 13),5
same,no. sensitive,[21]; 13 0.2 μM,1
same,no. sensitive,[21]; [38],1
same,no. sensitive,[21]; 13 2.0 μM (third column of 13),1
same,no. sensitive,[22]; 13 0.2 μM,2
same,no. sensitive,[22]; [38],2
same,no. sensitive,[22]; 13 2.0 μM (third column of 13),3
same,no. sensitive,[23]; 13 0.2 μM,3/5
same,no. sensitive,[23]; [38],8
same,no. sensitive,[23]; 13 2.0 μM (third column of 13),10
same,no. sensitive,[24]; 13 0.2 μM,2/2
same,no. sensitive,[24]; [38],2/2
same,no. sensitive,[24]; 13 2.0 μM (third column of 13),2/2
same,π,[13],2.00
same,effectiveness compared with imexon,[25]; 13 at 0.2 μM versus imexon at 1.0 μM,about as effective as imexon
same,activity and potency compared with imexon in fresh human tumor cells,[25]; listed as N-phenyl derivative,more potent and equally effective to imexon
"N[C@@H](Cc1ccc(N(CCCl)CCCl)cc1)C(=O)O [Melphalan, 4-[bis(2-chloroethyl)amino]-L-phenylalanine]",patients showing a favorable response,"[26]; multiple myeloma, oral administration",one third to one half
"CS(=O)(=O)OCCCCOS(C)(=O)=O [Busulfan, 1,4-butanediol dimethanesulfonate]",adults obtaining hematologic remission,[26]; previously untreated chronic myelogenous leukemia,Approximately 90%
